The nature of this data set: Acute toxicity (LD50) in mice after intravenous injection into the tail vein, survival after 7 days. The conditions noted are these: in vivo, mouse, i.v. tail vein, pH 7-7.5, survival after 7 days. On the procedure:
Mice weighing 18-22 g were given varying quantities of the compound as a […] aqueous solution per kg, adjusted to pH 7-7.5 by intravenous injection into the tail vein. After 7 days, the survival rate of the mice was determined and, from this value, the LD50 in mmol/kg of animal was calculated in the usual way.
(J. Comput. Assist. Tomogr. 7, 1983, 184.)

In the case of `CC1(C)CC(NC(=O)CCC(=O)O)CC(C)(C)N1[O]` [Compound 1, Succinic Acid (2,2,6,6-tetramethyl-1-oxylpiperidin-4-yl)-amide, reference compound], the LD50 (as a rule, the dose expected to kill half of the subjects tested) at 168 h was found to be 10000 µmol/kg.

`CC1(C)CC(C(=O)O)C(C)(C)N1[O]` (centres unmarked) [Compound 2, 2,2,5,5-Tetramethylpyrrolidine-1-oxyl-3-carboxylic Acid, reference compound] gave an LD50 at 168 h of 10000 µmol/kg. With `CC1(C)C=C(C(=O)NC(CO)C(O)CO)C(C)(C)N1[O]` (centres unmarked) [Compound 3, 2,2,5,5-Tetramethyl-3-pyrroline-1-oxyl-3-carboxylic Acid (1,3,4-Trihydroxybut-2-yl)amide], the LD50 at 168 h was found to be 20000 µmol/kg. Under `CC1(C)C=C(C(=O)NCC(O)CO)C(C)(C)N1[O]` (centres unmarked) [Compound 4, 2,2,5,5-Tetramethyl-3-pyrroline-1-oxyl-3-carboxylic Acid (2,3-Dihydroxypropyl)amide] stands 15000 µmol/kg; under `CC1(C)CC(C(=O)NC(CO)C(O)CO)C(C)(C)N1[O]` (centres unmarked) [Compound 5, 2,2,5,5-Tetramethylpyrrolidine-1-oxyl-3-carboxylic Acid (1,3,4-Trihydroxybut-2-yl)amide], 25000 µmol/kg.

The values above are taken from US4925652A, “Nitroxyl compounds, and diagnostic media based thereon useful for enhancing NmR imaging” (Schering Aktiengesellschaft, priority 1983, dated 1990).
